Drawing on a melting point compilation (Tetko et al.; mined from patent text by program, amines drawn as free bases though some values may be those of a salt), this text covers melting point for 90 compounds.

The melting point is the temperature of the solid-liquid transition.

As for `O=C(N[C@@H]1C(=O)N[C@@H]1C=Cc1ccccc1)OCc1ccccc1`, the melting point was 201 to 204 °C. Regarding `O=Cc1c2ccccc2cc2cccc(SCCO)c12`, the melting point is 103 to 104 °C.

In turn, `CNC(=O)c1ccc2c(c1)C(=O)N1CCC[C@@H]1CO2` showed a melting point of 186 to 189 °C.

The compound `CC(C)c1cc2c(c3c1C(=O)NS3(=O)=O)OCO2` yielded a melting point of 226 to 228 °C. Compound `CN1c2ccccc2-n2cc(Cc3cccnc3)c(=O)c3cccc1c32` came in with a melting point of 96.8 to 97.6 °C. To `CCOC(=O)c1cc(=O)c2ccc(OCCCCCOc3ccc(C(C)=O)c(O)c3)cc2o1` belongs 136 to 137 °C. To `BrCC(Br)c1ccc(-c2ccccc2)cc1` (stereo not given) belongs 79 to 81 °C; to `CC(=O)C[C@H]1CC[C@H](c2ccc(Cl)cc2)CC1`, 58 to 60 °C.

Turning to `O=C(O)c1ccc(Cl)c(S)c1`, the melting point lay in the range of 209 to 211 °C. The value for `C=C1C=C(Oc2cc(C(=O)O)ccc2OC)C1(F)F` was 163 to 165 °C; that for `O=C(O)C(=O)c1cn(Cc2ccccc2)c2ccc(Oc3ccc(C(F)(F)F)cc3Cl)cc12` was 152 to 154 °C; that for `COCOCc1cccc(-c2ccc(C(=O)O)cc2)c1` was 126 to 127 °C. To `Oc1ccc(-c2ncc3ncc(-c4ccccc4O)cc3n2)cc1` belongs 278 to 279 °C. To `C=CCOc1ccc([C@H]2CCN(C(=O)OC(C)(C)C)C[C@@H]2O)cc1` (racemic) belongs 113 °C; to `CC(C)(C)[Si](OCCCc1ccc(OCC(=O)O)cc1)(c1ccccc1)c1ccccc1`, 87 to 88 °C. The compound `C[C@H](NC(=O)OC(C)(C)C)C(=O)N1CCC[C@H]1C(=O)N1CCC[C@H]1C(=O)OCc1ccccc1` gave a melting point of 143 to 145 °C. The compound `CCCN(c1ccc(C(F)(F)F)cc1)c1nc(=O)c2cccnc2s1` displayed a melting point of 216 to 217 °C. The value for `COc1cnc(Cl)nc1NS(=O)(=O)c1cccc(Cl)c1Cl` was 244 to 245 °C; that for `COc1ccc(-n2nc(Sc3ccc(C)cc3)c(C)c(C#N)c2=O)cc1` was 148 to 149 °C. To `NC(=O)N(O)CCNC(=O)c1csc(-c2ccccc2)n1` belongs 188 to 192 °C; to `Cc1cccc(OCC(O)CN2C(=O)C3CCCN3c3ncccc32)c1C` (stereo not given), 123 to 125 °C. To `COC(=O)C(Cl)=Cc1cc([N+](=O)[O-])ccc1Cl` belongs 108 to 110 °C; to `Cc1cccc(-c2cc(Cl)nc3ccc(C(=O)c4ccc(Cl)cc4)cc23)c1`, 199 °C. With `Cc1cc(CNC(=O)c2ccnc(N3CCN(Cc4ccc(F)cc4)C3=O)c2)no1`, the melting point was in the range of 153 to 155 °C. In turn, `CC(=O)CCc1ccc2c(c1)Cc1ccccc1-2` gave a melting point of 99 to 101 °C. Turning to `O=C(OCc1ccc(Br)cc1)C1C(=O)OC2CC(=O)N21` (stereo not given), the melting point was 106 °C.

`NCc1cccc(N)c1` yielded a melting point of 40 to 43 °C. The value for `CCN(CC)CCOc1ccc(-c2oc3ccc(Cl)cc3c2C(=O)c2cc(C)cc(C)c2)cc1` was 161 to 162 °C.

Regarding `O=C1c2c(Cl)cccc2-n2cnc(CO)c2C2CCCN12` (stereo not given), the melting point lay within 303 to 305 °C.

For `CC(=O)OC1C(OC(=O)c2ccccc2)C(COC(=O)c2ccccc2)OC1n1cc(F)c(=O)[nH]c1=O` (stereo not given), the melting point is 96 to 98 °C. To `COc1c(OCc2ccccc2)ccc(C(=O)O)c1N` belongs 167 to 168 °C; to `CC(=O)NCCNC(=O)Nc1ccc(-c2c[nH]c(=O)cn2)cc1`, 238 to 244 °C. `O=C1C(c2ccccc2)SCN1CCCCBr` (stereo not given) had a melting point of 48 to 50 °C. The value for `CCOC(=O)c1cnoc1-c1ccc(OC)cc1` was 54 to 55 °C; that for `Nc1c(N=O)c(=O)n(CC2CCCCCC2)c(=O)n1CC1CCCCCC1` was greater than 250 °C. To `CCCCN(Cc1ccc(-c2ccccc2C(=N)NO)cc1)c1ncccc1C(=O)OCC` belongs 181 to 182 °C; to `CC1(C)CC(=C(c2ccc(O)cc2)c2ccc(-c3cccc(CO)c3)cc2)CC(C)(C)C1`, 197 to 198 °C; to `CS(=O)(=O)c1ccc(-n2nc(C(F)(F)F)cc2-c2ccc(-c3ccco3)cc2)cc1`, 196 °C. To `CNc1nc(Nc2ccc(Cl)c(Cl)c2)ncc1NC(=O)OC` belongs 303 to 305 °C. For the compound `CCOC(=O)COc1ccc(NC(=O)OC(C)(C)C)cc1OC`, the melting point lay in the range of 81 to 83 °C.

In turn, `O=C(NCCCl)NCC1(Cc2ccccc2)CC(=O)C(OCc2ccccc2)=CN1` (stereo not given) returned a melting point of 130 °C. The value for `COc1ccc2[nH]c3c(c2c1)CCC(C(=O)O)C3` (stereo not given) was 226 to 228 °C. Consider `O=C(O)c1cccc(-c2ncco2)c1`, for which the melting point was 187 to 188 °C.

Regarding `O=C(O)CCc1ccc(CCN2CCN(S(=O)(=O)c3ccccc3)CC2)cc1`, the melting point lay within 177 to 178 °C. With `COc1cc2ccn(C(=O)c3ccc(-c4ccc(-c5noc(C)n5)cc4C)cc3)c2cc1OCCN(C)C`, the melting point is 130 to 131 °C. Consider `CN1CCC(O)(c2ccccc2F)CC1`, for which the melting point fell in the range of 127 to 129 °C. The value for `COc1ccccc1CNc1ccc2cc(Nc3nccc(C)n3)ccc2n1` was 125 °C; that for `CC(=O)Nc1ccc([N+]([O-])=NC#N)cc1` was 240 to 242 °C; that for `COc1ccc(-c2ccc(=O)[nH]n2)c(OCC(O)CNC(C)(C)C)c1` (stereo not given) was 159 to 161 °C.

`CCOC(=O)c1nn(-c2ccc(NC)cc2)c(=O)c2c(N)scc12` came in with a melting point of 211 to 213 °C. The value for `Cc1csc2nc3cc(F)ccc3n12` was 148 °C; that for `C=CC[C@@H]1C[C@@H](COc2ccc(CCCCNC(=O)OC(C)(C)C)cc2)N(CCc2ccc3ccccc3c2)C1=O` was 79 to 83 °C. The value for `CNS(=O)(=O)c1cc2ccccc2cc1CC(=O)O` was 185 to 186 °C; that for `O=Cc1ccc2c(n1)C(=O)C(NC(=O)CCl)=CC2=O` was 190 to 192 °C; that for `NCC1(SCc2ccccc2)C2CC3CC(C2)CC1C3` (stereo not given) was 82 to 85 °C. Compound `CCCCOc1c(CN2C(=O)c3ccccc3C2=O)n(CC2CC2)c(=O)c2ccc(Br)cc12` displayed a melting point of 156 to 157 °C.

Compound `CC(SC(=O)c1ccccc1)C(=O)NCCC(=O)O` (stereo not given) came in with a melting point of 94 to 97 °C.

Consider `CN(C)C=Cc1cc(Cl)c(Cl)cc1[N+](=O)[O-]`, for which the melting point lay within 171 to 174 °C. To `COC(=O)c1cc(N(C)C)c(N(C)C)c(N(C)C)c1` belongs 61 to 63 °C; to `CC(C)(COc1ccc(Cl)cc1)C(=O)C(Oc1ccc(Cl)cc1)n1ccnc1` (stereo not given), 214 to 217 °C; to `CC(C)(C)OC(=O)NCc1cccc(C2CCN(C(=O)c3ccc(C#Cc4ccccc4F)o3)CC2)c1`, 111 to 113 °C. `CS(=O)(=O)Nn1c(=O)[nH]c2cc(C(F)(F)F)c(-c3ccc(C#N)cc3)cc2c1=O` gave a melting point of 145 to 147 °C. In the case of `COC(=O)C1=C(C)NC(C)=C(C(=O)OC)C1c1cccc(N(C)C(=NC#N)NCCCN2CCC(c3ccccc3)CC2)c1`, the melting point lay within 85 to 90 °C. To `O=C(O)CCc1cc2c(c(Br)c1Br)OCC2` belongs 224 to 226 °C. Regarding `Cc1onc(-c2cccc(Cl)c2)c1C(=O)O`, the melting point lay within 171 to 173 °C.

`COCOc1c(C)cc(-c2ccc(C(=O)O)cc2)cc1C` gave a melting point of 153 to 154 °C. To `O=C(COc1ccc(-c2ccc(F)cc2)cc1)Nc1cscc1C(=O)O` belongs 244 to 251 °C; to `COC(=O)c1cc(NC(=N)N)c(NC(C)=O)cc1O`, 233 to 234 °C. To `COC(=O)c1ccc(NN2C(=O)C(C)=C(C)C2=O)cc1C(=O)Nc1nc(OC)nc(OC)n1` belongs 123 to 127 °C; to `O=C1C(=O)c2ccc(-c3ccncc3)cc2C2=C1SCC1(CCN(C(=O)c3cccc(Cl)c3)CC1)O2`, 265 to 267 °C. In turn, `S=c1[nH]c2cccc(OCCNCc3cccc4ccccc34)c2[nH]1` came in with a melting point of 191 to 193 °C. The value for `CCN(CC)Nc1ccc(CN2OCC(C)(C)C2=O)c(Cl)c1` was 139 to 141 °C; that for `O=CN1CCN(S(=O)(=O)CCCOc2ccc3c(c2)CC2NC(=O)NC2=N3)CC1` (stereo not given) was 285 to 288 °C. In the case of `COc1cc2c(cc1OC(=O)C=Cc1ccccc1)C1Cc3c(Cl)cc(OC)c(OC(=O)C=Cc4ccccc4)c3CN1CC2` (stereo not given), the melting point fell in the range of 240 to 242 °C.

The compound `Cc1nn(-c2nnc(S)n2N)c2c1CCCC2` came in with a melting point of 201 to 202 °C. `Oc1cccc(-c2ocnc2-c2onc(-c3ccccc3)c2-c2ccccc2)c1` registered a melting point of 199 to 200 °C. To `COCOc1cccc2c(=O)[nH]c(C3CCN(C)CC3)cc12` belongs 194 to 196 °C; to `O=S1(=O)CCON=C1c1ccc(Cl)s1`, 113 to 114 °C; to `CC(C)CN/C(=C1/Sc2ccccc2C1=O)c1ccccc1`, 125 to 126 °C. On to `NCCC1CCc2ccc3c(c21)NC(=O)CO3` (stereo not given), for which the melting point lay in the range of 128 to 134 °C. The value for `CCOC(=O)C(C(=O)OCC)C(=O)c1cc(OC)c(OC)c([N+](=O)[O-])c1` was 70 °C; that for `CCC(CC)C(=O)C1=C(O)c2cc(OC)c(OC)c(OC)c2C(O)(c2ccc(OC)c(OC)c2)C1C(=O)OC` (stereo not given) was 156 to 157 °C; that for `COC(=O)c1cc(N)cc(CNC(=O)OC(C)(C)C)c1` was 57 to 65 °C. `O=Cc1ccc2c(c1)S(=O)c1ccccc1CC2` (stereo not given) registered a melting point of 158 to 160 °C. The value for `COC(C(=O)O)C(=O)Nc1cc(Cl)cc(Cl)c1` (stereo not given) was 142 to 145 °C; that for `O=C(CSCc1cc(Br)cc2[nH]c(=O)c(=O)[nH]c12)Nc1ccccc1` was greater than 250 °C. To `COc1ncccc1NC(=NC#N)NC(NC(=O)c1cc(F)cc(F)c1)C(C)(Cl)Cl` (stereo not given) belongs 125 to 126 °C; to `COc1ccc(-c2cc(C(N)(C(F)(F)F)C(F)(F)F)sc2-c2ccc(OC)cc2)cc1`, 87 to 90 °C.

Turning to `O=C(Nc1cccc(C(F)(F)F)c1)C(F)(F)F`, the melting point came to 69 °C. The value for `CN1CCN(C(=O)OC2c3ccccc3C(=O)N2c2ccc3ccc(C#N)nc3n2)CC1` (stereo not given) was 266 to 268 °C.
